Assay results from PubChem BioAssay AID1996.
Converted amounts (≈) assume the structure as drawn.

Details: buffer; pH 7.4; 200.0 µM
Work on Fc1ccc(-c2csc(N3CCOCC3)n2)cc1 yielded a solubility kinetic of 2.1 µg/mL (≈ 7.94 µM).
Work on COCCN=C(NS(=O)(=O)c1cccs1)c1ccccc1Cl yielded a solubility kinetic greater than 53.8 µg/mL.
O=C(COC(=O)c1cc(S(=O)(=O)Nc2ccccc2Cl)ccc1O)Nc1ccc(F)c(F)c1F showed a solubility kinetic of 10 µg/mL (≈ 19.4 µM).
With O=C(NC1CCCCCCC1)c1cccc(Cl)c1 the solubility kinetic was 0.9 µg/mL (≈ 3.39 µM).
In the case of Cn1c(=O)[nH]c(=O)c2c1nc(N1CCNCC1)n2Cc1ccccc1, the solubility kinetic is reported as 45.8 µg/mL (≈ 135 µM).
Molecule O=C(NCCc1ccc(Cl)cc1)C1COc2ccccc2O1 (configuration not stated) has a solubility kinetic of 5.5 µg/mL (≈ 17.3 µM).
COC(=O)c1cc(S(=O)(=O)N(C)C2CCCCC2)oc1C showed a solubility kinetic of 37.5 µg/mL (≈ 119 µM).
O=C(COC(=O)Cc1ccc([N+](=O)[O-])cc1)NC1CCCCCC1 showed a solubility kinetic greater than 50.2 µg/mL.
CCN(CCCl)Cc1ccccc1Br.Cl gave a solubility kinetic of 42.1 µg/mL.
In the case of CC(NC(=S)NC(=O)c1ccccc1)c1ccccc1 (configuration not stated), the solubility kinetic is reported as 6.4 µg/mL (≈ 22.5 µM).
Work on Cc1ccccc1OCc1nc(C#N)c(N2CCCC2)o1 yielded a solubility kinetic of 10.9 µg/mL (≈ 38.5 µM).
COc1cccc(OC)c1C(=O)Nc1nc(-c2ccccc2)cs1 showed a solubility kinetic of 1.6 µg/mL (≈ 4.7 µM).
In the case of Cc1cc(OCC(=O)NC2CCN(C)CC2)ccc1[N+](=O)[O-], the solubility kinetic is reported as greater than 46.1 µg/mL.
Molecule COc1ccc(OCCC(=O)Nc2ccccc2)cc1 has a solubility kinetic greater than 40.7 µg/mL.
COc1ccc(NC(=O)COC(=O)c2ccc(F)cc2F)cc1 showed a solubility kinetic greater than 48.2 µg/mL.
Work on CC(OC(=O)CCCC(=O)Nc1ccccc1)C(=O)c1ccccc1 (configuration not stated) yielded a solubility kinetic of 45.6 µg/mL (≈ 134 µM).
For Cc1onc(-c2ccccc2)c1CNC(=O)C1COc2ccccc2O1 (configuration not stated), the solubility kinetic was 46.2 µg/mL (≈ 132 µM).
CN(c1ccccc1)c1ncccn1 gave a solubility kinetic of 14.2 µg/mL (≈ 76.7 µM).
For O=C(CSC1=NS(=O)(=O)c2ccccc2N1)Nc1ccccc1F, the solubility kinetic was greater than 54.8 µg/mL.
CCCN1CCC(NC(=O)C2CCCCC2C(=O)O)CC1 (configuration not stated) showed a solubility kinetic greater than 44.5 µg/mL.
In the case of O=C(CSC(=S)N1CCCCC1)c1c(F)cccc1F, the solubility kinetic is reported as 4 µg/mL (≈ 12.7 µM).
CCCc1cnc(N2CCN(C(=O)c3ccccc3)CC2)nc1 showed a solubility kinetic greater than 46.6 µg/mL.
For N#C/C(=C(/O)c1cccc(F)c1)c1nc2ccccc2s1, the solubility kinetic was 17.8 µg/mL (≈ 60.1 µM).
Work on O=C(CN(c1ccccc1Cl)S(=O)(=O)c1ccccc1)NCc1ccccc1 yielded a solubility kinetic of 18.7 µg/mL (≈ 45.1 µM).
With COC(=O)c1ccsc1NC(=O)c1cccc(OC)c1 the solubility kinetic was 1.4 µg/mL (≈ 4.81 µM).
CC(C)n1c(/N=C/c2ccccc2O)nc2ccccc21 showed a solubility kinetic of 31.4 µg/mL (≈ 112 µM).
CCN(CC)CCCNC(=O)/C=C/C(=O)O showed a solubility kinetic of 31.2 µg/mL (≈ 137 µM).
In the case of O=C1NC2(CCCCCC2)C(=O)N1Cc1ccccc1Cl, the solubility kinetic is reported as 6.8 µg/mL (≈ 22.2 µM).
For Cc1cccc(C)c1N(CC(=O)N1CCOCC1)S(C)(=O)=O, the solubility kinetic was greater than 49 µg/mL.
In the case of O=C(Nc1nc(-c2cccs2)c(C(=O)C(F)(F)F)s1)c1ccco1, the solubility kinetic is reported as 3.8 µg/mL (≈ 10.2 µM).
Work on O=S(=O)(c1cc(Cl)ccc1Cl)N1CCc2ccccc21 yielded a solubility kinetic of less than 0.7 µg/mL.
Work on O=C(CNC(=O)c1ccc(OC(F)F)cc1)NC1CCCc2ccccc21 (configuration not stated) yielded a solubility kinetic of 5.6 µg/mL (≈ 15 µM).
Molecule CC(=O)c1cn(CC(=O)Nc2ccccc2F)c2ccccc12 has a solubility kinetic of 9.4 µg/mL (≈ 30.3 µM).
With C/C(=C\c1ccccc1)C(=O)N1CCN(Cc2ccc3c(c2)OCO3)CC1 the solubility kinetic was 51.8 µg/mL (≈ 142 µM).
Work on Cn1c(N)c(C(=O)COC(=O)c2ccccc2C(=O)c2ccc(Cl)cc2)c(=O)n(C)c1=O yielded a solubility kinetic of 6.3 µg/mL (≈ 13.8 µM).
Molecule COC(=O)c1ccc(Oc2nc(NC(C)C)nc(NC(C)C)n2)cc1 has a solubility kinetic of 1.4 µg/mL (≈ 4.05 µM).
COc1ccc(CSc2nc(C)[nH]c2[N+](=O)[O-])cc1[N+](=O)[O-] showed a solubility kinetic of 3.2 µg/mL (≈ 9.87 µM).
Work on CC(C)CNC1CS(=O)(=O)CC1O.Cl (configuration not stated) yielded a solubility kinetic greater than 36.6 µg/mL.
In the case of Cc1ccc(Nc2c(-c3ccccc3)nc3cnccn23)cc1, the solubility kinetic is reported as 1.1 µg/mL (≈ 3.66 µM).
In the case of Cc1cccc(OCc2cc(-c3ccccc3)no2)c1C, the solubility kinetic is reported as less than 0.6 µg/mL.
In the case of CCOC(=O)Cc1csc(NC(=O)/C=C/c2ccccc2Cl)n1, the solubility kinetic is reported as less than 0.4 µg/mL.
With CCOc1ccccc1NC(=O)Nc1ccncc1 the solubility kinetic was 36.3 µg/mL (≈ 141 µM).
In the case of COc1ccccc1NC(=O)COC(=O)c1cn(C)c2ccccc12, the solubility kinetic is reported as 1.5 µg/mL (≈ 4.43 µM).
In the case of CN1CCN2c3ccccc3CC3(C(=O)N(C)C(=O)N(C)C3=O)C2C1 (configuration not stated), the solubility kinetic is reported as greater than 51.4 µg/mL.
Work on C/C(=N\OCc1ccc(C#N)cc1)c1ccccc1 yielded a solubility kinetic of less than 0.3 µg/mL.
For C=CCN(c1ccccc1OC)S(=O)(=O)c1cccc(C(=O)NC2=NCCS2)c1, the solubility kinetic was 7.4 µg/mL (≈ 17.1 µM).
With COC(=O)c1[nH]c2c(c1C)C(=O)CC(c1ccc(OC)c(OC)c1)C2 (configuration not stated) the solubility kinetic was 2.1 µg/mL (≈ 6.12 µM).
